# Assay results: US10138260B2, “Compounds of phosphinanes and azaphosphinanes, a process for their preparation and pharmaceutical compositions containing them” (LES LABORATOIRES SERVIER, priority 2016, dated 2018)
# Where a name gives a salt, the structure may show the parent alone.
# Target: T1, TAFIa (Homo sapiens, UniProt Q96IY4)
# T1 sequence (Q96IY4 115-423): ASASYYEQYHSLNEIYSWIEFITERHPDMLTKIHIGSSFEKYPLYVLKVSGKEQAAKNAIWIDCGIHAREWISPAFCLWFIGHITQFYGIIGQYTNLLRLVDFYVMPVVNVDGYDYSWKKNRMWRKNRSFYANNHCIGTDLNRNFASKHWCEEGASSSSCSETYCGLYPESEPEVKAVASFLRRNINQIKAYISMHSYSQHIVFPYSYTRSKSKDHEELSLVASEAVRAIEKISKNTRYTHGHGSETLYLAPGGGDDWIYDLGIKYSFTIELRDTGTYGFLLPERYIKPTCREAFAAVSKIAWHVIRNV
# Assay: Inhibition of TAFIa (hippuryl-Arg test)
# Format: biochemical
# Settings: TAFIa 2 nM, hippuryl-arginine 5 mM, 45 minutes, relative to control containing the carrier; for inhibition at 0.01 µM: compound at 10 nM; for inhibition at 0.02 µM: compound at 20 nM
# Method: Human TAFI (4 nM) is incubated with human thrombin (10 nM) and human thrombomodulin (5 nM) in the presence of calcium (10 mM). After incubation for 20 minutes, the activation reaction is stopped by addition of PPACK (1 μM final), an irreversible thrombin inhibitor.
# The reactions take place in Hepes buffer (25 mM Hepes, 137 mM NaCl, 3.5 mM KCl)+0.1% bovine albumin, pH 7.4 at 28° C. and with stirring.
# The test compound is added to the solution of TAFIa (2 nM) and incubated for 45 minutes in the presence of hippuryl-arginine (5 mM). The reaction is stopped by addition of hydrochloric acid (1M) neutralised subsequently with sodium hydroxide (1M), and then the mixture is buffered with disodium hydroxyphosphate (1M pH 7.4). […] The reaction mixture is stirred (vortex) and then centrifuged. The supernatant is transferred to a 96-well microplate, and the absorbance is measured using a spectrophotometer at 405 nm (Spectramax plus, Molecular Devices).
# The OD value of a well containing the reagents without TAFI is subtracted from all the OD values measured. The percentage inhibition of TAFIa at a given concentration of the test compound is determined by means of the following formula: % inhibition=100−[(OD compound×100)/OD carrier]
# The compounds are evaluated at 10 nM and 20 nM under the experimental conditions described above and the results are expressed as the percentage inhibition relative to a control containing the carrier in the absence of compound.
Structure (SMILES),inhibition at 0.01 µM [%],inhibition at 0.02 µM [%]
"CC(C)c1ccccc1CN1CCP(=O)(O)C(CCCCN)(C(=O)O)C1 (stereo not drawn) [Example 174, 3-(4-AMINOBUTYL)-4-HYDROXY-4-OXO-1-[(2-PROPAN-2-YLPHENYL)METHYL]-1,4-AZAPHOSPHINANE-3-CARBOXYLIC ACID]",43,51
"NCCCC[C@@]1(C(=O)O)CN(Cc2ccc(Cl)cc2-c2ccc(Cl)cc2)CCP1(=O)O [Example 195, (3S)-3-(4-AMINOBUTYL)-1-[[4-CHLORO-2-(4-CHLOROPHENYL)PHENYL]METHYL]-4-HYDROXY-4-OXO-1,4-AZAPHOSPHINANE-3-CARBOXYLIC ACID]",74,87
"NCCCCC1(C(=O)O)CN(Cc2ccccc2-c2ccc(=O)[nH]c2)CCP1(=O)O (stereo not drawn) [Example 166, 3-(4-AMINOBUTYL)-4-HYDROXY-4-OXO-1-[[2-(6-OXO-1H-PYRIDIN-3-YL)PHENYL]METHYL]-1,4-AZAPHOSPHINANE-3-CARBOXYLIC ACID]",66,93
"NCCCCC1(C(=O)O)CN(Cc2ccccc2-c2cc(Cl)ccc2Cl)CCP1(=O)O (stereo not drawn) [Example 48, 3-(4-AMINOBUTYL)-1-[[2-(2,5-DICHLOROPHENYL)PHENYL]METHYL]-4-HYDROXY-4-OXO-1,4-AZAPHOSPHINANE-3-CARBOXYLIC ACID]",45,54
"NCCCC[C@@]1(C(=O)O)CN(Cc2ccccc2-c2cncnc2)CCP1(=O)O [Example 182, (3S)-3-(4-AMINOBUTYL)-4-HYDROXY-4-OXO-1-[(2-PYRIMIDIN-5-YLPHENYL)-METHYL]-1,4-AZAPHOSPHINANE-3-CARBOXYLIC ACID]",81,95
"COc1ccc(-c2cc(O)ccc2CN2CCP(=O)(O)[C@](CCCCN)(C(=O)O)C2)cc1OC [Example 229, (3S)-3-(4-AMINOBUTYL)-1-[[2-(3,4-DIMETHOXYPHENYL)-4-HYDROXYPHENYL]-METHYL]-4-HYDROXY-4-OXO-1,4-AZAPHOSPHINANE-3-CARBOXYLIC ACID]",81,89
"NCCCC[C@@]1(C(=O)O)CN(Cc2ccccc2-c2cccc3ccccc23)CCP1(=O)O [Example 199, (3S)-3-(4-AMINOBUTYL)-4-HYDROXY-1-[(2-NAPHTHALEN-1-YLPHENYL)-METHYL]-4-OXO-1,4-AZAPHOSPHINANE-3-CARBOXYLIC ACID]",54,73
"NCCCCC1(C(=O)O)CN(Cc2ccccc2-c2ccccc2-c2ccccc2)CCP1(=O)O (stereo not drawn) [Example 114, 3-(4-AMINOBUTYL)-4-HYDROXY-4-OXO-1-[[2-(2-PHENYLPHENYL)PHENYL]-METHYL]-1,4-AZAPHOSPHINANE-3-CARBOXYLIC ACID]",42,51
"COc1ccc(-c2ccccc2CN2CCP(=O)(O)[C@](CCCCN)(C(=O)O)C2)cc1OC [Example 248, (3S)-3-(4-AMINOBUTYL)-1-[[2-(3,4-DIMETHOXYPHENYL)PHENYL]METHYL]-4-HYDROXY-4-OXO-1,4-AZAPHOSPHINANE-3-CARBOXYLIC ACID]",87,95
"NCCCC[C@@]1(C(=O)O)CN(Cc2ccccc2-c2cccs2)CCP1(=O)O [Example 183, (3S)-3-(4-AMINOBUTYL)-4-HYDROXY-4-OXO-1-[(2-THIOPHEN-2-YLPHENYL)-METHYL]-1,4-AZAPHOSPHINANE-3-CARBOXYLIC ACID]",73,88
"NCCCCC1(C(=O)O)CN(Cc2ccc(Cl)cc2-c2ccc(Cl)cc2)CCP1(=O)O (stereo not drawn) [Example 113, 3-(4-AMINOBUTYL)-1-[[4-CHLORO-2-(4-CHLOROPHENYL)PHENYL]METHYL]-4-HYDROXY-4-OXO-1,4-AZAPHOSPHINANE-3-CARBOXYLIC ACID]",68,90
"NCCCC[C@@]1(C(=O)O)CN(Cc2ccccc2-c2cnc3ccccn23)CCP1(=O)O [Example 237, (3S)-3-(4-AMINOBUTYL)-4-HYDROXY-1-[(2-IMIDAZO[1,2-A]PYRIDIN-3-YLPHENYL)METHYL]-4-OXO-1,4-AZAPHOSPHINANE-3-CARBOXYLIC ACID]",77,84
"NCCCC[C@@]1(C(=O)O)CN(Cc2ccccc2-c2ccncc2)CCP1(=O)O [Example 252, (3S)-3-(4-AMINOBUTYL)-4-HYDROXY-4-OXO-1-[(2-PYRIDIN-4-YLPHENYL)-METHYL]-1,4-AZAPHOSPHINANE-3-CARBOXYLIC ACID]",76,90
"Cc1ccc(-c2cc(O)ccc2CN2CCP(=O)(O)[C@](CCCCN)(C(=O)O)C2)cc1 [Example 223, (3S)-3-(4-AMINOBUTYL)-4-HYDROXY-1-[[4-HYDROXY-2-(4-METHYLPHENYL)-PHENYL]METHYL]-4-OXO-1,4-AZAPHOSPHINANE-3-CARBOXYLIC ACID]",71,83
"NCCCC[C@@]1(C(=O)O)CN(Cc2ccc(F)cc2-c2cc3ccccc3s2)CCP1(=O)O [Example 216, (3S)-3-(4-AMINOBUTYL)-1-[[2-(1-BENZOTHIOPHEN-2-YL)-4-FLUOROPHENYL]-METHYL]-4-HYDROXY-4-OXO-1,4-AZAPHOSPHINANE-3-CARBOXYLIC ACID]",71,85

# Next, values leading:
inhibition at 0.01 µM [%],inhibition at 0.02 µM [%],Structure (SMILES)
85,95,"NCCCC[C@@]1(C(=O)O)CN(Cc2ccc(F)cc2-c2ccc(O)cc2)CCP1(=O)O [Example 211, (3S)-3-(4-AMINOBUTYL)-1-[[4-FLUORO-2-(4-HYDROXYPHENYL)PHENYL]-METHYL]-4-HYDROXY-4-OXO-1,4-AZAPHOSPHINANE-3-CARBOXYLIC ACID]"
81,91,"Cn1nccc1-c1cc(F)ccc1CN1CCP(=O)(O)[C@](CCCCN)(C(=O)O)C1 [Example 236, (3S)-3-(4-AMINOBUTYL)-1-[[4-FLUORO-2-(2-METHYLPYRAZOL-3-YL)PHENYL]-METHYL]-4-HYDROXY-4-OXO-1,4-AZAPHOSPHINANE-3-CARBOXYLIC ACID]"
88,94,"Cc1ncc(-c2cc(O)ccc2CN2CCP(=O)(O)[C@](CCCCN)(C(=O)O)C2)n1C [Example 249, (3S)-3-(4-AMINOBUTYL)-1-[[2-(2,3-DIMETHYLIMIDAZOL-4-YL)-4-HYDROXYPHENYL]METHYL]-4-HYDROXY-4-OXO-1,4-AZAPHOSPHINANE-3-CARBOXYLIC ACID]"
72,86,"Cn1cncc1-c1cc(O)ccc1CN1CCP(=O)(O)[C@](CCCCN)(C(=O)O)C1 [Example 246, (3S)-3-(4-Aminobutyl)-4-hydroxy-1-[[4-hydroxy-2-(3-methylimidazol-4-yl)phenyl]methyl]-4-oxo-1,4-azaphosphinane-3-carboxylic acid, hydrobromide]"
49,68,"COc1cccc(-c2cc(F)ccc2CN2CCP(=O)(O)[C@](CCCCN)(C(=O)O)C2)n1 [Example 244, (3S)-3-(4-AMINOBUTYL)-1-[[4-FLUORO-2-(6-METHOXYPYRIDIN-2-YL)PHENYL]-METHYL]-4-HYDROXY-4-OXO-1,4-AZAPHOSPHINANE-3-CARBOXYLIC ACID]"
85,96,"COc1ccc(-c2cc(F)ccc2CN2CCP(=O)(O)[C@](CCCCN)(C(=O)O)C2)cn1 [Example 239, (3S)-3-(4-AMINOBUTYL)-1-[[4-FLUORO-2-(6-METHOXYPYRIDIN-3-YL)PHENYL]-METHYL]-4-HYDROXY-4-OXO-1,4-AZAPHOSPHINANE-3-CARBOXYLIC ACID]"
67,80,"NCCCC[C@@]1(C(=O)O)CN(Cc2ccc(F)cc2-c2ccccc2Cl)CCP1(=O)O [Example 206, (3S)-3-(4-AMINOBUTYL)-1-[[2-(2-CHLOROPHENYL)-4-FLUOROPHENYL]METHYL]-4-HYDROXY-4-OXO-1,4-AZAPHOSPHINANE-3-CARBOXYLIC ACID]"
73,85,"NCCCC[C@@]1(C(=O)O)CN(Cc2ccc(F)cc2-c2cc[nH]c(=O)c2)CCP1(=O)O [Example 222, (3S)-3-(4-AMINOBUTYL)-1-[[4-FLUORO-2-(2-OXO-1H-PYRIDIN-4-YL)PHENYL]-METHYL]-4-HYDROXY-4-OXO-1,4-AZAPHOSPHINANE-3-CARBOXYLIC ACID]"
62,86,"Cn1cc(-c2cc(F)ccc2CN2CCP(=O)(O)[C@](CCCCN)(C(=O)O)C2)cn1 [Example 212, (3S)-3-(4-AMINOBUTYL)-1-[4-FLUORO-2-(1-METHYL-1H-PYRAZOL-4-YL)BENZYL]-4-HYDROXY-4-OXO-1,4-AZAPHOSPHINANE-3-CARBOXYLIC ACID]"
